Reference: patent publication US20100331297A1, “MODULATION OF PROTEIN TRAFFICKING” (FOLDRX PHARMACEUTICALS, INC., priority 2007, published 2010)

Experiments:
Type in all cases: cell-based
ΔF508 CFTR [1] = biological target: T1, ΔF508 CFTR (Homo sapiens, UniProt P13569, DEL508-508); test: Stabilization of ΔF508 CFTR in CFBE cells (western blot, densitometry); details: 16 hours at 37° C.
Text: In addition, efficacy of a compound can be evaluated before (first in time), concomitantly or subsequently to the above-mentioned test modalities by monitoring, e.g., (i) modulation (e.g., an improvement) of the stability of a trafficking defective protein, (ii) modulation (e.g., an improvement) of proper, physiological trafficking of the trafficking defective protein, or (iii) modulation (e.g., a restoration) in one or more functions of a trafficking defective protein. For example, in some cases, proteins (e.g., protein mutants such as ΔF508 CFTR) are prematurely degraded. Thus, the efficacy of a given compound to modulate protein trafficking can be determined by monitoring the stability of a protein in the presence as compared to the absence of the compound. For example, cells expressing a trafficking defective protein (e.g., expressing endogenously or expressing an exogenous transgene encoding a trafficking defective protein such as ΔF508 CFTR) can be cultured in the presence or absence of a compound for at least 1 hour (e.g., at least 2 hours, at least 4 hours, at least 6 hours, at least 8 hours, at least 12 hours, at least 16 hours, at least 24 hours, at least 36 hours, or at least 48 hours). Cell lysates can be prepared from the different populations of cells, suspended in Laemmli buffer (with or without reducing agent) and subjected to sodium dodecyl sulfate-polyacrylamide gel electrophoresis (SDS-PAGE). Using antibodies that specifically recognize the trafficking defective protein (e.g., CFTR), the amount of the protein in the presence as compared to in the absence of a compound can be determined by western or dot-blotting techniques. […] Where a modified state (e.g., glycosylation or phosphorylation) of a protein is indicative of increased stability, a change in the modified state of a protein can also be used to determine if a compound stabilizes the trafficking defective protein. For example, the amount of glycosylated CFTR (e.g., ΔF508 CFTR) can be assessed in the presence as compared to the absence of a compound.
The compounds can be tested for their ability to stabilize ΔF508 CTFR. CFBE cells, a cell line generated by transformation of cystic fibrosis tracheo-bronchial cells (ΔF508 CTFR homozygous) with SV40 (Bruscia et al. (2002) Gene Ther. 9(11):683-685), can be cultured with 10 μM of the selected compounds, or 10 μM VRT-325 for 16 hours at 37° C. (VRT-325 is described in, e.g., Van Goor et al. (2006) Am. J. Physiol. Lung Cell Mol. Physiol. 290:L1117-L1130). A population of cells can also be cultured with the dimethyl sulfoxide (DMSO) solvent as a control.
Following incubation, cells were lysed, solubilized in Laemmli buffer, and subjected to SDS-PAGE. CFTR protein were visualized by western blotting using an antibody specific for CFTR. Culturing CFBE cells with compound 25 (see Table I for structure) increased the amount of cellular ΔF508 CFTR protein.
The effect of different concentrations of compound 25 on ΔF508 CFTR was tested in a dose response experiment. […] The relative amounts of glysosylated and unglycosylated ΔF508 CFTR protein were visualized by western blotting (FIG. 10A), and the band intensities wer quantitated by scanning and densitometry (FIG. 10B). […] The relative amounts of glysosylated and unglycosylated ΔF508 CFTR protein were visualized by western blotting (FIG. 11A), and the band intensities wer quantitated by scanning and densitometry (FIG. 11B).

ΔF508 CFTR [2] = biological target: T1, ΔF508 CFTR; test: Ussing chamber assay, short-circuit current in FRT cells stably expressing ΔF508 CFTR; design: expressed in transfected cells; host or cells: Fischer rat thyroid (FRT) cells; details: FRT ΔF508 CFTR monolayers treated 24 hours; forskolin, isobutylmethylxanthine, genistein
Protocol: Ussing Chamber Assay: Fischer rat thyroid (FRT) cells stably expressing ΔF508 CFTR (cystic fibrosis transmembrane conductance regulator) were cultured as previously described in Am J. Physiol. (1994) 266 L405-413. Monolayers of cells were grown on Snapwell inserts (Corning Inc.) at the air/liquid interface. The monolayers were treated with compound for 24 hours. The inserts are mounted in Ussing chambers (Harvard Apparatus) and short-circuit currents are measured using a voltage clamp apparatus (WPI, Inc.). A mucosal to serosal gradient in chloride concentration is imposed and the basolateral membrane is permeabilized using amphotericin. Short circuit currents are measured upon addition of the agonists forskolin, isobutylmethylxanthine, and genistein to maximally activate CFTR.

ΔF508 CFTR [3] = biological target: T1, ΔF508 CFTR; test: Corrector activity, YFP halide (iodide) quenching assay in FRT cells expressing ΔF508 CFTR; design: expressed in transfected cells; host or cells: Fischer rat thyroid (FRT) cells; details: Corrector EC50, FRT cells ΔF508 CFTR/YFP, 24 hours with compound at 37° C., forskolin and genistein
In short: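 FRT cells co-expressing ΔF508 CFTR and halide-sensitive YFP were incubated 24 h at 37° C with compounds, then stimulated 30 min at 37° C in PBS with forskolin and genistein. Endpoint fluorescence after iodide injection was normalized to initial reading; EC50 from 4-parameter fit with bottom constrained to DMSO control.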

T1 sequence (P13569 with tags, fused parts or gaps DEL508-508): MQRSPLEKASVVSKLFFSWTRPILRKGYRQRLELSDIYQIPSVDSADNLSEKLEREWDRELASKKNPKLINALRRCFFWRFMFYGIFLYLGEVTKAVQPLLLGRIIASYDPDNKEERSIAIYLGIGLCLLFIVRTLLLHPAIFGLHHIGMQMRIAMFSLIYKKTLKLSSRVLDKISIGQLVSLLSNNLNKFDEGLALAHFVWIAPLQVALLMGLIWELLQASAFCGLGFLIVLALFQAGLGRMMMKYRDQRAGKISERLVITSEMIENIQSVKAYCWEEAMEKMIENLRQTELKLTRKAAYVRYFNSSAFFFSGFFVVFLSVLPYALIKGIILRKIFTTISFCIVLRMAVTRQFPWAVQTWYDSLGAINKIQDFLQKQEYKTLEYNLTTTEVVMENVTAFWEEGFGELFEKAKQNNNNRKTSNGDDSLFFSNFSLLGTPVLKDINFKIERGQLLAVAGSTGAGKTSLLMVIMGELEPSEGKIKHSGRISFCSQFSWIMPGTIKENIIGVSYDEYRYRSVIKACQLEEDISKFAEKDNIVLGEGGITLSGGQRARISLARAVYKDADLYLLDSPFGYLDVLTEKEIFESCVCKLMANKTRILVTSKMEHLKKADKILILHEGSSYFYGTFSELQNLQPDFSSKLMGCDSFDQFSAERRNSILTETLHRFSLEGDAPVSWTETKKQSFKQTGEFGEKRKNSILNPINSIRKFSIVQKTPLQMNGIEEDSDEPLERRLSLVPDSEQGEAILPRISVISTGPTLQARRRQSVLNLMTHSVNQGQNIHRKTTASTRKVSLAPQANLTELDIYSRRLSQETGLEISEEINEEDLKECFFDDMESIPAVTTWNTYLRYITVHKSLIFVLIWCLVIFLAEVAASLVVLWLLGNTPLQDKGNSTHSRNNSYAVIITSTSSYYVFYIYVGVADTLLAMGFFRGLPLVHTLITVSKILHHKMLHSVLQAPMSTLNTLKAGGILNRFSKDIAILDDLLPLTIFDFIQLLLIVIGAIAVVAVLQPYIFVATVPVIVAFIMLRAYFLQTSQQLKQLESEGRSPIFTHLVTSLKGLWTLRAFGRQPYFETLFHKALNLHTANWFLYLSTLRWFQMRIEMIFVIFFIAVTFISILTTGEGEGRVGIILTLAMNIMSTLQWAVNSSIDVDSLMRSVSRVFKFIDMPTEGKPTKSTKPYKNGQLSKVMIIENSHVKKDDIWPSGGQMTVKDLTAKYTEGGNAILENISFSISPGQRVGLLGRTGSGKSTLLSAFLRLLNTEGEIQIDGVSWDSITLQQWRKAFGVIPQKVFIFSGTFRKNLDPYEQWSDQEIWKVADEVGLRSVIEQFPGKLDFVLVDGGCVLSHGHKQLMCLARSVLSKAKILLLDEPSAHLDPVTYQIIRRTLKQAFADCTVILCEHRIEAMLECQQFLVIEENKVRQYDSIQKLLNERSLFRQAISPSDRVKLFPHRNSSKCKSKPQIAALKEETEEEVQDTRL

SMILES: CC(C)(C)n1nc(-c2ccc(Cl)cc2)c2c(N)ncnc21 [compound 25]
- amount of cellular ΔF508 CFTR protein (western blot) (ΔF508 CFTR [1]; 10 μM): increased
- amount of the glycosylated form of ΔF508 CFTR (western blot) (ΔF508 CFTR [1]; 10 μM): increased
- effect on stabilizing ΔF508 CFTR relative to VRT-325 (ΔF508 CFTR [1]; 10 μM): comparable or better
- glycosylated (Band B) ΔF508 CFTR protein vs absence of compound, dose response (ΔF508 CFTR [1]; 1.25-10 μM (compound 25), 1-10 μM (compound 5)): increased
- short circuit current after the addition of all three agonists (ΔF508 CFTR [2]): ~65 uA/cm^2
- EC50 (ΔF508 CFTR [3]): 2 to 5 µM
